Measured values as given in PubChem BioAssay (NCI).
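Assay format: 96-well plates, 48-hour exposure. TGI: total growth inhibition.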

How the values were obtained:
Test in all cases: inhibition of tumour cell growth, NCI panel, 48 h
RPMI-8226 leukemia = system: RPMI-8226 leukemia
CAKI-1 renal = system: CAKI-1 renal
SK-MEL-28 melanoma = system: SK-MEL-28 melanoma
UACC-62 melanoma = system: UACC-62 melanoma
SK-OV-3 ovarian = system: SK-OV-3 ovarian
HCT-15 colon = system: HCT-15 colon
SF-268 CNS = system: SF-268 CNS
U251 CNS = system: U251 CNS
HL-60(TB) leukemia = system: HL-60(TB) leukemia
786-0 renal = system: 786-0 renal

Row | SMILES | TGI (RPMI-8226 leukemia) | TGI (CAKI-1 renal) | TGI (SK-MEL-28 melanoma) | TGI (UACC-62 melanoma) | TGI (SK-OV-3 ovarian) | TGI (HCT-15 colon) | TGI (SF-268 CNS) | TGI (U251 CNS) | TGI (HL-60(TB) leukemia) | TGI (786-0 renal)
1 | CCOC(=O)c1cc2c(C(=O)c3ccc([N+](=O)[O-])cc3)c(C(C)=O)ccc2[nH]1 | > 100 µM | > 100 µM | > 100 µM | > 100 µM | 51.3 µM | > 100 µM | 38.9 µM | 32.3 µM | > 100 µM | > 100 µM
2 | N#Cc1c(-c2ccc(Cl)cc2)c2c(n(C3OC(CO)C(O)C(O)C3O)c1=S)CCC2 (stereo not given) | > 100 µM | > 100 µM | 32.9 µM | 34 µM | > 100 µM | > 100 µM | 84.7 µM | 84.9 µM | > 100 µM | > 100 µM
3 | COC(=O)C(Cc1ccccc1)NP(=O)(O)OCC1OC(n2cc(F)c(=O)[nH]c2=O)CC1O (stereo not given) | > 100 µM | > 100 µM | > 100 µM | > 100 µM | > 100 µM | > 100 µM | > 100 µM | > 100 µM | > 100 µM | > 100 µM
4 | Nc1ccccc1CC(O)C(=O)O (stereo not given) | > 100 µM | > 100 µM | > 100 µM | > 100 µM | > 100 µM | > 100 µM | > 100 µM | > 100 µM | > 100 µM | > 100 µM
5 | CC1(C)[C@H]2CC[C@]1(C)[C@H](OC(=O)NNC(=O)O[C@@H]1C[C@@H]3CC[C@@]1(C)C3(C)C)C2 | 30.7 µM | 28.8 µM | > 100 µM | 38.8 µM | 28.6 µM | 27.5 µM | 33.1 µM | 62.9 µM | 62.7 µM | 50.3 µM
6 | O=c1oc2ccccc2cc1-c1cn2cc(Cl)ccc2n1 | 59.7 µM | 3.28 µM | 17.9 µM | 0.898 µM | 5.96 µM | 20.7 µM | 16.7 µM | 13.9 µM | > 61.7 µM | 8.95 µM
7 | COc1ccc2nc3cc([N+](=O)[O-])ccc3c(Nc3ccc(S(=O)(=O)NC(C)=O)cc3)c2c1 | > 100 µM | > 100 µM | > 100 µM | > 100 µM | > 100 µM | > 100 µM | > 100 µM | > 100 µM | > 100 µM | > 100 µM
8 | CCN(CC)c1ccc2cc(C(=O)Nc3cccc4ccccc34)c(=N)oc2c1 | > 100 µM | > 100 µM | > 100 µM | > 100 µM | > 100 µM | > 100 µM | > 100 µM | > 100 µM | > 100 µM | > 100 µM
9 | O=C(OCCN=c1c2ccccc2ccc2ccccc12)c1ccc([N+](=O)[O-])cc1 | > 100 µM | > 100 µM | > 100 µM | > 100 µM | > 100 µM | > 100 µM | > 100 µM | > 100 µM | > 100 µM | > 100 µM
10 | O=C(O)c1ccn(-c2cccc(-n3ccc(C(=O)O)n3)n2)n1 | > 100 µM | > 100 µM | > 100 µM | > 100 µM | > 100 µM | > 100 µM | > 100 µM | > 100 µM | > 100 µM | > 100 µM
11 | Nc1ncnc2c1nnn2C1CCC(CP(=O)(O)O)C1 (stereo not given) | > 100 µM | > 100 µM | > 100 µM | > 100 µM | > 100 µM | > 100 µM | > 100 µM | > 100 µM | > 100 µM | > 100 µM
12 | COc1c(O)cc(O)c2c(=O)cc(-c3ccccc3)oc12 | 37.1 µM | > 100 µM | > 100 µM | > 100 µM | > 100 µM | > 100 µM | > 100 µM | > 100 µM | 57.3 µM | > 100 µM
13 | CC(=O)c1c(C(F)(F)F)n([O-])c2cc(Cl)c(Cl)cc2[n+]1=O | 0.353 µM | 3.33 µM | 3.87 µM | 2.58 µM | 2.9 µM | 0.759 µM | 2.53 µM | 2.63 µM | 1.43 µM | 0.38 µM
14 | O=C(Nc1nc2ccccc2s1)c1cc([N+](=O)[O-])ccc1Cl | > 100 µM | > 100 µM | > 100 µM | > 100 µM | > 100 µM | > 41.4 µM | 62 µM | > 91.6 µM | 4.41 µM | > 58.6 µM
15 | CC1(C)CC(=O)c2c(nc3ccc4ccccc4c3c2-c2ccc(NC(=O)CCCCCCCCC(=O)Nc3ccc(-c4c5c(nc6ccc7ccccc7c46)CC(C)(C)CC5=O)cc3)cc2)C1 | > 100 µM | > 100 µM | > 100 µM | > 100 µM | > 100 µM | > 100 µM | > 100 µM | > 100 µM | > 100 µM | > 100 µM
16 | COc1cc(C2c3cc4c(cc3OC(NNC(N)=O)C2C)OCO4)cc(OC)c1O (stereo not given) | > 31.8 µM | > 100 µM | > 100 µM | > 100 µM | > 51.5 µM | > 100 µM | > 100 µM | > 53.1 µM | 7.84 µM | > 80.1 µM
17 | COc1ccc(-c2c(C#N)c(S)n(NS(=O)(=O)c3ccc(C)cc3)c(=O)c2C#N)cc1 | 15.4 µM | > 100 µM | 63.2 µM | 31.5 µM | > 100 µM | 32.4 µM | 88 µM | > 100 µM | 33.2 µM | 31.7 µM
18 | O=c1ccn(CC2(CO)CC(Cc3ccccc3)C2)c(=O)[nH]1 (stereo not given) | > 100 µM | > 100 µM | > 100 µM | > 100 µM | > 100 µM | > 100 µM | > 100 µM | > 100 µM | > 100 µM | > 100 µM
